For series [1], the system named is ovariectomized rats. As to the kind of experiment: serum test (ALP, BUN, CRE, GOT, GPT) of ovariectomized rats fed with the test agents. Conditions: Comparison 2 (OVXC): ovariectomized rats, calcium citrate 0.5 g/kg, no liquid. The method, then:
(§1) Owing to hormone variation, menopausal females lose their bones fast and suffer from osteoporosis easily. The rats used in the experiment groups, control group, and comparison groups are female Sprague-Dawley rats. The rats are fed with different proportions of the high-magnesium potable water beforehand. Then, the serum and tissue slices of the rats are analyzed.
(§2) The dosages of the high-magnesium concentrated liquid fed to the rats in experiment groups, control group and comparison groups are shown in Table.1. The unit of the dosage is milliliter or gram per kilogram of body weight. The control group is the group of unovariectomized rats. The supply of calcium citrate is to learn the influence of calcium on osteoporosis.

Series [2] relates to ovariectomized rats. As to the kind of experiment: serum test (calcium, magnesium, potassium, sodium, phosphor) of ovariectomized rats fed with the test agents. Conditions: Comparison 2 (OVXC): ovariectomized rats, calcium citrate 0.5 g/kg, no liquid. Here is the method:
as §1, §2

Series [3] relates to ovariectomized rats. Description: Micro-CT bone density and trabecula images of ovariectomized rats. It counts as in vivo, female Sprague-Dawley rats. Conditions: Comparison Group II, calcium citrate 0.5 g/kg, no liquid. The method, then: as §1, §2
FIGS. 2A-2F are respectively the images of the bone densities of the rats of Experiment Group I, Experiment Group II, Experiment Group III, Control Group, Comparison Group I, and Comparison Group II. FIGS. 3A-3F are respectively the trabecula images of the rats of Experiment Group I, Experiment Group II, Experiment Group III, Control Group, Comparison Group I, and Comparison Group II.

SMILES strings stand for the structures.

In the case of `O=C([O-])CC(O)(CC(=O)[O-])C(=O)[O-].O=C([O-])CC(O)(CC(=O)[O-])C(=O)[O-].[Ca+2].[Ca+2].[Ca+2]` [Calcium Citrate, calcium citrate], in series [1], the ALP in serum worked out at 130 U/L, the BUN in serum is 17 mg/dL, the CRE in serum is 0.85 mg/dL and the GOT in serum is 75 U/L. Further, the GPT in serum in series [1] amounted to 75 U/L. Also, in series [2], the Calcium in serum worked out at 12.4 mg/dL, the Phosphor in serum worked out at 8 mg/dL, the Potassium in serum was 5.8 mmol/L and the Sodium in serum was determined as 143 mmol/L. In addition, in series [3] (FIG. 2F), the “bone density (Micro-CT images)” value is given as “lower bone density”. For the same molecule, the “trabecula distribution (Micro-CT images)” value in series [3] (FIG. 3F) is recorded as “less compact trabecula distribution”.

The values are drawn from patent US10647591B2, “High-magnesium concentrated liquid” (QUALITY PURE CO., LTD., priority 2016, dated 2020).
